The structures appear in SMILES notation.

One test concerns the target T1, c-kit kinase (Homo sapiens, UniProt P10721).
T1 construct: The c-kit (or kinase domain thereof) is an active kinase in AlphaScreen; poly-Histidine tag (in-house protein only) (cleaved yes); host or cells: E. coli BL21(DE3)RIL, co-expressed with PTP1B
Put plainly: c-Kit biochemical assay, AlphaScreen, 10 μM ATP. The conditions noted are these: c-kit biochemical inhibitory activity; read-out: Biochemical activity (IC50 μM) Kit. In a few lines: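 His-tagged c-Kit expressed in E. coli with co-expressed PTP1B (dephosphorylated), tag removed; 0.1 ng per reaction with biotinylated-peptide substrate in 50 mM HEPES pH 7.2, 5 mM MgCl2, 5 mM MnCl2, 5% DMSO, 10 μM ATP, 1 h at room temperature. Phosphorylation detected by AlphaScreen (streptavidin donor, PY20 acceptor beads); IC50 from 8-point 1:3 dilution series.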
Background: In Alpha technology, singlet oxygen from a donor bead excites a nearby acceptor bead.

The next test deals with T2, c-kit mutant D816V (Homo sapiens, UniProt P10721, D816V/DEL694-753).
T2 construct: residues 551-934, kinase insertion domain residues 694-753 deleted; 6x-histidine (N); made in house; host or cells: E. coli Arctic Express (DE3) RIL (Stratagene)
The experiment in a line: c-Kit mutant D816V biochemical assay, AlphaScreen. The conditions noted are these: c-kit D816V biochemical inhibitory activity; read-out: Biochemical activity (IC50 μM) Kit D816V. In a few lines:
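Eight-point, threefold compound series incubated 30 min at room temperature with E. coli-produced D816V kinase, 10 μM ATP, Mg2+/Mn2+ HEPES buffer pH 7.2 and 5% DMSO. After EDTA stop, streptavidin and anti-phosphotyrosine (PY20) AlphaScreen beads gave the read-out, and IC50 was fitted from the concentration–signal curve.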

T1 sequence (P10721 26-976): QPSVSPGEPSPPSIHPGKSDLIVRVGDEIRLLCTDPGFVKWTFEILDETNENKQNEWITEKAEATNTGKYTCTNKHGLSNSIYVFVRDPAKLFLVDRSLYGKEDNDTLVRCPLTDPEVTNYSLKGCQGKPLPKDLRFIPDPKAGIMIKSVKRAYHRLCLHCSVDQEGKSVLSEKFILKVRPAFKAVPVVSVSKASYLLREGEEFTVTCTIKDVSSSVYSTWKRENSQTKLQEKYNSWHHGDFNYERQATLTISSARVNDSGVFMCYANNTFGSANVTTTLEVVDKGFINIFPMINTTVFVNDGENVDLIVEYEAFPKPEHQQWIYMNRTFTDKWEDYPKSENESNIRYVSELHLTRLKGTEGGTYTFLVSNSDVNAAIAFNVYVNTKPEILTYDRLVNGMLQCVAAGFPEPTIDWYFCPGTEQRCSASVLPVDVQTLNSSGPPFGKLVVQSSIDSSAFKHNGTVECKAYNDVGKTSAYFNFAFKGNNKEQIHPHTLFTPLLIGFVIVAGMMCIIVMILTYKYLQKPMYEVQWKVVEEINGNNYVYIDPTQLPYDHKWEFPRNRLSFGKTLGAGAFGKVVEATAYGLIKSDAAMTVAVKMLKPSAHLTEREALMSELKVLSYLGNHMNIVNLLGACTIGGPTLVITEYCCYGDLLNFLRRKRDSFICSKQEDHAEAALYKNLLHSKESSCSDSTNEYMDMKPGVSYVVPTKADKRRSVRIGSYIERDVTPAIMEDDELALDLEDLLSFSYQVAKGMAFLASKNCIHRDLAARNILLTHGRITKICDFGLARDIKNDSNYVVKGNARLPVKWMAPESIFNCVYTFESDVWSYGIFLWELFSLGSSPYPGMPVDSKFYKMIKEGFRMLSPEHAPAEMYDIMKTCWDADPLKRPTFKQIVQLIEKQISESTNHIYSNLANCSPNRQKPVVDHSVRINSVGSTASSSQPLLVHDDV
T2 sequence (P10721 with tags, fused parts or gaps DEL694-753/D816V): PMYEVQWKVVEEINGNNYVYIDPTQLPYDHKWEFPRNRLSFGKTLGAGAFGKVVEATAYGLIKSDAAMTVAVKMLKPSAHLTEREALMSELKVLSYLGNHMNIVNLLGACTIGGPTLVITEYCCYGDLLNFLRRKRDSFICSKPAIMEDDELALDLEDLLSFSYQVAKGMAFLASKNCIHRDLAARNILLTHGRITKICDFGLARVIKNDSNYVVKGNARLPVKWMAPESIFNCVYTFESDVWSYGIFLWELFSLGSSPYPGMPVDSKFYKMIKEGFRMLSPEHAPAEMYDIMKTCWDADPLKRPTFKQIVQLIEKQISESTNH

One may read the IC50 as the concentration at which inhibition is half-maximal. Turning to `C[C@@H]1CN(c2ncnc3cc(-c4ccc(F)cc4)sc23)CCN1C(=O)NCc1ccc(F)cc1` [P-0602, (2R)-N-[(4-fluorophenyl)methyl]-4-[6-(4-fluorophenyl)thieno[3,2-d]pyrimidin-4-yl]-2-methyl-piperazine-1-carboxamide], the figures for the IC50 on c-kit kinase and at c-kit mutant D816V were 10 to 200 µM and 0.0001 to 1 µM, respectively.
In the case of `Cc1nn(C)cc1-c1cc2ncnc(C3CCN(C(=O)N[C@@H](C)c4ccc(F)cc4)CC3)c2s1` [P-0603, 4-[6-(1,3-dimethylpyrazol-4-yl)thieno[3,2-d]pyrimidin-4-yl]-N-[(1S)-1-(4-fluorophenyl)ethyl]piperidine-1-carboxamide], the IC50 on c-kit kinase is 10 to 200 µM; on c-kit mutant D816V, 1 to 10 µM.
For `Cc1nn(C)cc1-c1cc2ncnc(C3CCN(C(=O)NCc4ccc(F)cc4)CC3)c2s1` [P-0604, 4-[6-(1,3-dimethylpyrazol-4-yl)thieno[3,2-d]pyrimidin-4-yl]-N-[(4-fluorophenyl)methyl]piperidine-1-carboxamide], the half-maximal inhibitory concentration (IC50) at c-kit kinase was 1 to 10 µM; at c-kit mutant D816V it was 0.0001 to 1 µM.
`COc1cccc([C@@H](C)NC(=O)N2CCN(c3ncnc4cc(-c5ccc(F)cc5)sc34)C[C@H]2C)c1` [P-0605, (2R)-4-[6-(4-fluorophenyl)thieno[3,2-d]pyrimidin-4-yl]-N-[(1R)-1-(3-methoxyphenyl)ethyl]-2-methyl-piperazine-1-carboxamide]: the IC50 at c-kit kinase and on c-kit mutant D816V was 10 to 200 µM in each case.
For `C[C@@H]1CN(c2ncnc3cc(-c4ccc(F)cc4)sc23)CCN1C(=O)N[C@H](C)c1ccc(F)cc1` [P-0606, (2R)-N-[(1R)-1-(4-fluorophenyl)ethyl]-4-[6-(4-fluorophenyl)thieno[3,2-d]pyrimidin-4-yl]-2-methyl-piperazine-1-carboxamide], the half-maximal inhibitory concentration (IC50) at c-kit kinase is 10 to 200 µM; at c-kit mutant D816V, 1 to 10 µM.
Take `Cc1nn(C)cc1-c1cc2ncnc(C3CCNCC3)c2s1` [P-0607, 6-(1,3-dimethylpyrazol-4-yl)-4-(4-piperidyl)thieno[3,2-d]pyrimidine]: the half-inhibitory concentration (IC50) on c-kit kinase was in the range of 1 to 10 µM; on c-kit mutant D816V, 10 to 200 µM.
Take `COc1cccc([C@@H](C)NC(=O)N2CCN(c3ncnc4cc(-c5cn(C)nc5C)sc34)C[C@H]2C)c1` [P-0608, (2R)-4-[6-(1,3-dimethylpyrazol-4-yl)thieno[3,2-d]pyrimidin-4-yl]-N-[(1R)-1-(3-methoxyphenyl)ethyl]-2-methyl-piperazine-1-carboxamide]: the half-inhibitory concentration (IC50) at c-kit kinase was 10 to 200 µM; on c-kit mutant D816V, 0.0001 to 1 µM.
Take `Cc1nn(C)cc1-c1cc2ncnc(N3CCN(C(=O)N[C@H](C)c4ccc(F)cc4)[C@H](C)C3)c2s1` [P-0609, (2R)-4-[6-(1,3-dimethylpyrazol-4-yl)thieno[3,2-d]pyrimidin-4-yl]-N-[(1R)-1-(4-fluorophenyl)ethyl]-2-methyl-piperazine-1-carboxamide]: the IC50 was in the range of 1 to 10 µM at c-kit kinase and 0.0001 to 1 µM at c-kit mutant D816V.
Take `Cc1nn(C)cc1-c1cc2ncnc(N3CCN(C(=O)NCc4ccc(F)cc4)[C@H](C)C3)c2s1` [P-0610, (2R)-4-[6-(1,3-dimethylpyrazol-4-yl)thieno[3,2-d]pyrimidin-4-yl]-N-[(4-fluorophenyl)methyl]-2-methyl-piperazine-1-carboxamide]: the IC50 on c-kit kinase was 1 to 10 µM; on c-kit mutant D816V, 0.0001 to 1 µM.
Consider `Cc1ccc(S(=O)(=O)Nc2ccc(-c3ncnc4cc(C5=CCNCC5)sc34)cc2)cc1` [P-0611, 4-methyl-N-[4-[6-(1,2,3,6-tetrahydropyridin-4-yl)thieno[3,2-d]pyrimidin-4-yl]phenyl]benzenesulfonamide], for which the 50% inhibitory concentration (IC50) on c-kit kinase and on c-kit mutant D816V was 0.0001 to 1 µM throughout.
On to `Cc1nn(C)cc1-c1cc2ncnc(C3=CCN(C(=O)Nc4ccc(Cl)cc4)CC3)c2s1` [P-0612, N-(4-chlorophenyl)-4-[6-(1,3-dimethylpyrazol-4-yl)thieno[3,2-d]pyrimidin-4-yl]-3,6-dihydro-2H-pyridine-1-carboxamide], for which the IC50 at c-kit kinase and at c-kit mutant D816V was 0.0001 to 1 µM in each case.

Values taken from patent publication US10227357B2, “Compounds and methods for kinase modulation, and indications therefor” (Plexxikon Inc., priority 2012, dated 2019).
